# According to patent publication US6461997B1, “Triazole sulfones having herbicidal activity” (Monsanto Technology LLC, priority 1999, dated 2002):
# Experiments:
# DATST (jimsonweed) = test: Pre-plant incorporated (PPI) herbicidal activity, warm season; format: in vivo, Datura stramonium; settings: for PPI activity (GR80) DATST: pre-plant incorporated, GR80 = lowest tested rate with 80% or greater inhibition, approx. 14 days after treating, 30/21° C.
# Experimental: (§1) In another set of tests, the pre-plant incorporated (PPI) activity of compounds of this invention was evaluated on the same species as for the pre-emergence tests described above. In the PPI tests the following procedure, designed to simulate PPI application, was used.
# (§2) A pre-prepared topsoil mixture (described above) was placed in a pot and compacted to a depth of 1.0 to 1.25 cm from the top of the pot. Seeds of each of several monocotyledonous and dicotyledonous annual plant species were placed on top of the soil. A sufficient quantity of soil to cover the seeds and level fill the pot was weighed into an open container. A known amount of the test compound was dissolved or suspended in an organic solvent and applied by spraying to this cover soil. The cover soil was thoroughly mixed to distribute the test compound throughout the cover soil, and was then applied as a cover layer over the seeds. Untreated soil was used as a cover layer for control pots. After treatment the plants were placed in a greenhouse where they received 0.64 cm of overhead irrigation. All subsequent watering consisted of a light overhead mist and/or subirrigation as needed for germination and growth. Tables 9 and 10 below relate to warm season plant species which were placed after pre-emergence treatment in a greenhouse with a 30/21° C. day/night temperature regime. Tables 11 and 12 below relates to cool season plant species placed after pre-emergence treatment in a greenhouse or growth chamber with an 18/13° C. day/night temperature regime. Only the compounds of Examples 1, 6, 8, 11, 13 and 15-20 were included in PPI tests.
# (§3) Approximately 14 days after planting and treating, the plants were observed and herbicidal efficacy recorded as percent inhibition by comparison with untreated plants.
# SORVU (shattercane) [1] = test: as above; format: in vivo, Sorghum vulgare; settings: for PPI activity GR80, SORVU: pre-plant incorporated, lowest tested rate with 80% or greater inhibition, about 14 days
# Experimental: as §1, §2, §3
# SORVU (shattercane) [2] = test: Pre-emergence herbicidal activity, warm season; format: in vivo, Sorghum vulgare; settings: for Pre-emergence activity (GR80) SORVU: GR80 = lowest tested rate (300, 100, 30, 10 g/ha) with 80% or greater inhibition, approx. 14 days after treating, 30/21° C.
# Method in brief: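 Activity is expressed as the rate giving 80% inhibition, with 300, 100, 30 and 10 g/ha typically tested. An asterisk marks activity short of 80% at the top rate. Warm-season grasses were held at 30/21 °C; cool-season blackgrass and wild buckwheat at 18/13 °C; scoring at about 14 days.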
# [3] = test system: CHEAL (common lambsquarters); test: Pre-emergence herbicidal activity, warm season; format: in vivo, Chenopodium album; settings: GR80 = lowest tested rate (300, 100, 30, 10 g/ha) with 80% or greater inhibition; approx. 14 days after treating; 30/21° C.
# Method in brief: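 Seeds sown in sterilised fertilised topsoil received surface-applied compound in 50:50 acetone/water, typically at 300, 100, 30 and 10 g/ha, then greenhouse-grown at 30/21° C (warm-season species) or 18/13° C (cool-season species). Percent inhibition versus untreated plants was scored at about 14 days, giving GR80; an asterisk marks activity short of 80% at the top rate.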
# DIGSA (large crabgrass) = test: Pre-plant incorporated (PPI) herbicidal activity, warm season; format: in vivo, Digitaria sanguinalis; settings: for PPI activity GR80, DIGSA: pre-plant incorporated, lowest tested rate with 80% or greater inhibition, about 14 days
# Experimental: as §1, §2, §3
# STEME (common chickweed) = test: Pre-plant incorporated (PPI) herbicidal activity, cool season; format: in vivo, Stellaria media; settings: for PPI activity GR80, STEME: pre-plant incorporated, lowest tested rate with 80% or greater inhibition, about 14 days; for Percent inhibition STEME: weed, PPI application
# Experimental: as §1, §2, §3
# [4] = test system: AEGCY (jointed goatgrass); test: as above; format: in vivo, Aegilops cylindrica; settings: for PPI activity GR80, AEGCY: pre-plant incorporated, lowest tested rate with 80% or greater inhibition, about 14 days; for Percent inhibition AEGCY: weed, PPI application
# Experimental: as §1, §2, §3
# POAAN (annual bluegrass) = test: as above; format: in vivo, Poa annua; settings: weed, PPI application
# Experimental: as §1, §2, §3
# oilseed rape (BRSNS) = test: Selectivity test, PPI, cool season crop; format: in vivo, Brassica napus; settings: PPI application
# Experimental: as §2, §3
# Additional pre-emergence and PPI tests were conducted by the procedures described above, on warm and cool season weed species in the presence of crop species, to assess herbicidal selectivity. Crop species included in warm season tests were corn (Zea mays, ZEAMX), rice (Oryza sativa, ORYSA) and soybean (Glycine max, GLYMX). Crop species included in cool season tests were wheat (Triticum aestivum, TRZAW), barley (Hordeunm vulgare, HORVX) and oilseed rape (Brassica napus, BRSNS).
# Tables 15 and 16 relate to pre-emergence and PPI tests respectively on warm season species. Table 17 relates to pre-emergence tests on cool season species.
# ABUTH (velvetleaf) = test: Pre-plant incorporated (PPI) herbicidal activity, warm season; format: in vivo, Abutilon theophrasti
# Experimental: as §1, §2, §3
compound,measurement,setting,value
CCN(CC)C(=O)n1cnc(S(=O)(=O)C(F)(F)C(=O)c2ccccc2)n1 [Example 6],PPI activity (GR80) DATST,DATST (jimsonweed),300 g/ha
same,"PPI activity GR80, SORVU",SORVU (shattercane) [1],300 g/ha
same,Pre-emergence activity (GR80) SORVU,SORVU (shattercane) [2],"* (activity observed, at least at highest rate, but <80% inhibition)"
same,Pre-emergence activity (GR80) CHEAL,[3],300 g/ha
same,"PPI activity GR80, DIGSA",DIGSA (large crabgrass),100 g/ha
same,"PPI activity GR80, STEME",STEME (common chickweed),100 g/ha
same,"PPI activity GR80, AEGCY",[4],[empty]
CCN(CC)C(=O)n1cnc(S(=O)(=O)C(F)(F)SCc2ccccc2)n1 [Example 10],Percent inhibition POAAN,POAAN (annual bluegrass); 10 g/ha,0%
same,Percent inhibition POAAN,POAAN (annual bluegrass); 30 g/ha,10%
same,Percent inhibition POAAN,POAAN (annual bluegrass); 100 g/ha,95%
same,Percent inhibition POAAN,POAAN (annual bluegrass); 300 g/ha,100%
same,Percent inhibition POAAN,POAAN (annual bluegrass); 900 g/ha,100%
same,Percent inhibition BRSNS,oilseed rape (BRSNS); 10 g/ha,0%
same,Percent inhibition BRSNS,oilseed rape (BRSNS); 30 g/ha,0%
same,Percent inhibition BRSNS,oilseed rape (BRSNS); 100 g/ha,0%
same,Percent inhibition BRSNS,oilseed rape (BRSNS); 300 g/ha,50%
same,Percent inhibition BRSNS,oilseed rape (BRSNS); 900 g/ha,95%
same,Percent inhibition DATST,"DATST (jimsonweed); PPI application, 10 g/ha",0%
same,Percent inhibition DATST,"DATST (jimsonweed); PPI application, 30 g/ha",0%
same,Percent inhibition DATST,"DATST (jimsonweed); PPI application, 100 g/ha",0%
same,Percent inhibition DATST,"DATST (jimsonweed); PPI application, 300 g/ha",20%
same,Percent inhibition DATST,"DATST (jimsonweed); PPI application, 900 g/ha",100%
same,Percent inhibition SORVU,"SORVU (shattercane) [1]; PPI application, 10 g/ha",0%
same,Percent inhibition SORVU,"SORVU (shattercane) [1]; PPI application, 30 g/ha",0%
same,Percent inhibition SORVU,"SORVU (shattercane) [1]; PPI application, 100 g/ha",20%
same,Percent inhibition SORVU,"SORVU (shattercane) [1]; PPI application, 300 g/ha",95%
same,Percent inhibition SORVU,"SORVU (shattercane) [1]; PPI application, 900 g/ha",100%
same,Pre-emergence activity (GR80) CHEAL,[3],300 g/ha
same,Percent inhibition DIGSA,"DIGSA (large crabgrass); PPI application, 10 g/ha",0%
same,Percent inhibition DIGSA,"DIGSA (large crabgrass); PPI application, 30 g/ha",0%
same,Percent inhibition DIGSA,"DIGSA (large crabgrass); PPI application, 100 g/ha",90%
same,Percent inhibition DIGSA,"DIGSA (large crabgrass); PPI application, 300 g/ha",85%
same,Percent inhibition DIGSA,"DIGSA (large crabgrass); PPI application, 900 g/ha",100%
same,Percent inhibition ABUTH,"ABUTH (velvetleaf); PPI application, 10 g/ha",0%
same,Percent inhibition ABUTH,"ABUTH (velvetleaf); PPI application, 30 g/ha",0%
same,Percent inhibition ABUTH,"ABUTH (velvetleaf); PPI application, 100 g/ha",0%
same,Percent inhibition ABUTH,"ABUTH (velvetleaf); PPI application, 300 g/ha",30%
same,Percent inhibition ABUTH,"ABUTH (velvetleaf); PPI application, 900 g/ha",50%
same,Percent inhibition STEME,STEME (common chickweed); 10 g/ha,0%
same,Percent inhibition STEME,STEME (common chickweed); 30 g/ha,0%
same,Percent inhibition STEME,STEME (common chickweed); 100 g/ha,0%
same,Percent inhibition STEME,STEME (common chickweed); 300 g/ha,0%
same,Percent inhibition STEME,STEME (common chickweed); 900 g/ha,90%
same,Percent inhibition AEGCY,[4]; 10 g/ha,0%
same,Percent inhibition AEGCY,[4]; 30 g/ha,0%
same,Percent inhibition AEGCY,[4]; 100 g/ha,20%
same,Percent inhibition AEGCY,[4]; 300 g/ha,30%
same,Percent inhibition AEGCY,[4]; 900 g/ha,20%
"CCN(CC)C(=O)n1cnc(S(=O)(=O)C(F)F)n1 [Example 15, 1-(N,N-diethylcarbamoyl)-3-(difluoromethylsulfonyl)-1,2,4-triazole]",inhibition at 10 g/ha,"DATST (jimsonweed); Datura stramonium, PPI application, 10 g/ha, read-out: Percent inhibition DATST",0%
same,inhibition at 30 g/ha,"DATST (jimsonweed); Datura stramonium, PPI application, 30 g/ha, read-out: Percent inhibition DATST",0%
same,inhibition at 100 g/ha,"DATST (jimsonweed); Datura stramonium, PPI application, 100 g/ha, read-out: Percent inhibition DATST",0%
same,inhibition at 300 g/ha,"DATST (jimsonweed); Datura stramonium, PPI application, 300 g/ha, read-out: Percent inhibition DATST",65%
same,inhibition at 900 g/ha,"DATST (jimsonweed); Datura stramonium, PPI application, 900 g/ha, read-out: Percent inhibition DATST",90%
same,PPI activity (GR80) DATST,DATST (jimsonweed),300 g/ha
same,inhibition at 10 g/ha,"SORVU (shattercane) [1]; Sorghum bicolor, PPI application, 10 g/ha, read-out: Percent inhibition SORVU",10%
same,inhibition at 30 g/ha,"SORVU (shattercane) [1]; Sorghum bicolor, PPI application, 30 g/ha, read-out: Percent inhibition SORVU",60%
same,inhibition at 100 g/ha,"SORVU (shattercane) [1]; Sorghum bicolor, PPI application, 100 g/ha, read-out: Percent inhibition SORVU",100%
same,inhibition at 300 g/ha,"SORVU (shattercane) [1]; Sorghum bicolor, PPI application, 300 g/ha, read-out: Percent inhibition SORVU",100%
same,inhibition at 900 g/ha,"SORVU (shattercane) [1]; Sorghum bicolor, PPI application, 900 g/ha, read-out: Percent inhibition SORVU",100%
same,"PPI activity GR80, SORVU",SORVU (shattercane) [1],300 g/ha
same,Pre-emergence activity (GR80) SORVU,SORVU (shattercane) [2],"* (activity observed, at least at highest rate, but <80% inhibition)"
same,inhibition at 10 g/ha,"SORVU (shattercane) [2]; Sorghum bicolor, pre-emergence application, 10 g/ha, read-out: Percent inhibition, weed SORVU",0%
same,inhibition at 30 g/ha,"SORVU (shattercane) [2]; Sorghum bicolor, pre-emergence application, 30 g/ha, read-out: Percent inhibition, weed SORVU",0%
same,inhibition at 100 g/ha,"SORVU (shattercane) [2]; Sorghum bicolor, pre-emergence application, 100 g/ha, read-out: Percent inhibition, weed SORVU",20%
same,inhibition at 300 g/ha,"SORVU (shattercane) [2]; Sorghum bicolor, pre-emergence application, 300 g/ha, read-out: Percent inhibition, weed SORVU",60%
same,inhibition at 900 g/ha,"SORVU (shattercane) [2]; Sorghum bicolor, pre-emergence application, 900 g/ha, read-out: Percent inhibition, weed SORVU",95%
same,inhibition at 10 g/ha,"DIGSA (large crabgrass); Digitaria sanguinalis, PPI application, 10 g/ha, read-out: Percent inhibition DIGSA",90%
same,inhibition at 30 g/ha,"DIGSA (large crabgrass); Digitaria sanguinalis, PPI application, 30 g/ha, read-out: Percent inhibition DIGSA",70%
same,inhibition at 100 g/ha,"DIGSA (large crabgrass); Digitaria sanguinalis, PPI application, 100 g/ha, read-out: Percent inhibition DIGSA",100%
same,inhibition at 300 g/ha,"DIGSA (large crabgrass); Digitaria sanguinalis, PPI application, 300 g/ha, read-out: Percent inhibition DIGSA",100%
same,inhibition at 900 g/ha,"DIGSA (large crabgrass); Digitaria sanguinalis, PPI application, 900 g/ha, read-out: Percent inhibition DIGSA",100%
same,"PPI activity GR80, DIGSA",DIGSA (large crabgrass),100 g/ha
same,inhibition at 10 g/ha,"ABUTH (velvetleaf); Abutilon theophrasti, PPI application, 10 g/ha, read-out: Percent inhibition ABUTH",0%
same,inhibition at 30 g/ha,"ABUTH (velvetleaf); Abutilon theophrasti, PPI application, 30 g/ha, read-out: Percent inhibition ABUTH",0%
same,inhibition at 100 g/ha,"ABUTH (velvetleaf); Abutilon theophrasti, PPI application, 100 g/ha, read-out: Percent inhibition ABUTH",20%
same,inhibition at 300 g/ha,"ABUTH (velvetleaf); Abutilon theophrasti, PPI application, 300 g/ha, read-out: Percent inhibition ABUTH",50%
same,inhibition at 900 g/ha,"ABUTH (velvetleaf); Abutilon theophrasti, PPI application, 900 g/ha, read-out: Percent inhibition ABUTH",40%
same,PPI activity (GR80) ABUTH,"ABUTH (velvetleaf); pre-plant incorporated, GR80 = lowest tested rate with 80% or greater inhibition, approx. 14 days after treating, 30/21° C.",100 g/ha
same,"PPI activity GR80, STEME",STEME (common chickweed),300 g/ha
same,"PPI activity GR80, AEGCY",[4],[empty]
